Results taken from US4332794A, “6"-Deoxydibekacin, 4",6"-dideoxydibekacin and 1-N-aminoacyl derivatives thereof, and the production of these new compounds” (Zaidan Hojin Biseibutsu Kagaku Kenkyu Kai, priority 1979, dated 1982).
Values after ≈ are worked out from the molar mass of the structure shown. Read-outs that look alike come from different tables or passages of the source.

Experiments:
[1] = test system: Staphylococcus aureus APO1; experiment: MIC, serial dilution on nutrient agar; assay type: cell-based
[2] = test system: Pseudomonas aeruginosa B-13; experiment: MIC, serial dilution on nutrient agar; assay type: cell-based
Providencia Pv 16 = experiment: MIC, serial dilution on nutrient agar; assay type: cell-based
Salmonella typhi F63 = experiment: MIC, serial dilution on nutrient agar; assay type: cell-based; details: Salmonella enterica, 18 h
Escherichia coli K-12 R5 = experiment: microbe, parasite or virus in culture; assay type: cell-based; details: K12R5, 18 h
[3] = test system: Pseudomonas aeruginosa A3; experiment: MIC, serial dilution on nutrient agar; assay type: cell-based
[4] = test system: Staphylococcus aureus Smith; experiment: MIC, serial dilution on nutrient agar; assay type: cell-based; details: 37° C., 18 hours
[5] = test system: Pseudomonas aeruginosa H11; experiment: MIC, serial dilution on nutrient agar; assay type: cell-based
Sarcina lutea PCI 1001 = experiment: MIC, serial dilution on nutrient agar; assay type: cell-based; details: Micrococcus luteus
[6] = test system: Pseudomonas aeruginosa H9; experiment: MIC, serial dilution on nutrient agar; assay type: cell-based; details: H9, 18 h
[7] = test system: Bacillus subtilis PCI 219; experiment: MIC, serial dilution on nutrient agar; assay type: cell-based; details: PCI219, 37° C., 18 hours
[8] = test system: Pseudomonas aeruginosa TI-13; experiment: MIC, serial dilution on nutrient agar; assay type: cell-based; details: TI13, 18 h
[9] = test system: Mycrococcus flavus FDA 16; experiment: MIC, serial dilution on nutrient agar; assay type: cell-based; details: 18 h
[10] = test system: Pseudomonas aeruginosa No. 12; experiment: MIC, serial dilution on nutrient agar; assay type: cell-based
Proteus rettgeri GN311 = experiment: MIC, serial dilution on nutrient agar; assay type: cell-based; details: Providencia rettgeri, GN311, 18 h
[11] = test system: Bacillus cereus ATCC 10702; experiment: MIC, serial dilution on nutrient agar; assay type: cell-based
[12] = test system: Pseudomonas aeruginosa PST1; experiment: MIC, serial dilution on nutrient agar; assay type: cell-based; details: PST1, 18 h
[13] = test system: Staphylococcus epidermidis 109; experiment: MIC, serial dilution on nutrient agar; assay type: cell-based
[14] = test system: Escherichia coli K-12 ML 1410; experiment: MIC, serial dilution on nutrient agar; assay type: cell-based; details: K12ML1410, nutrient agar, 37° C., 18 hours, read-out: MIC
[15] = test system: Escherichia coli K-12 LA 290 R64; experiment: MIC, serial dilution on nutrient agar; assay type: cell-based; details: K12LA290R64, 18 h
Serratia SOU = experiment: MIC, serial dilution on nutrient agar; assay type: cell-based; details: 37° C., 18 hours
Description: (§1) The minimum inhibitory concentrations (mcg/ml) of 6"-deoxydibekacin (abbreviated as 6"-DDKB), 4",6"-dideoxydibekacin (abbreviated as 4",6"-DDKB), 1-N-(L-4-amino-2-hydroxybutyryl)-6"-deoxydibekacin (abbreviated as AHB-6"-DDKB) and 1-N-(L-4-amino-2-hydroxybutyryl)-4",6"-dideoxydibekacin (abbreviated as AHB-4",6"-DDKB) of this invention against various microorganisms were determined according to serial dilution method on a nutrient agar medium at 37° C., the estimation being made after 18 hours incubation. For comparison purpose, the minimum inhibitory concentrations of dibekacin (abbreviated as DKB) were also determined in the same manner as stated above.

Serratia 4 = experiment: MIC, serial dilution on nutrient agar; assay type: cell-based; details: 37° C., 18 hours
Description: as §1

[16] = test system: Pseudomonas aeruginosa GN315; experiment: MIC, serial dilution on nutrient agar; assay type: cell-based; details: 37° C., 18 hours
Description: as §1

[17] = test system: Escherichia coli K-12 C 600R/35; experiment: MIC, serial dilution on nutrient agar; assay type: cell-based; details: K12C600R/35, 37° C., 18 hours
Description: as §1

Providencia 2991 = experiment: MIC, serial dilution on nutrient agar; assay type: cell-based; details: 37° C., 18 hours
Description: as §1

[18] = test system: Staphylococcus aureus 209P; experiment: MIC, serial dilution on nutrient agar; assay type: cell-based; details: 37° C., 18 hours
Description: as §1

[19] = test system: Escherichia coli K-12 ML 1629; experiment: MIC, serial dilution on nutrient agar; assay type: cell-based; details: K12ML1629, 37° C., 18 hours
Description: as §1

Shigella sonnei JS11746 = experiment: MIC, serial dilution on nutrient agar; assay type: cell-based; details: 37° C., 18 hours
Description: as §1

Serratia marcescens = experiment: MIC, serial dilution on nutrient agar; assay type: cell-based; details: 37° C., 18 hours
Description: as §1

[20] = test system: Pseudomonas aeruginosa 21-75; experiment: MIC, serial dilution on nutrient agar; assay type: cell-based; details: 2175, 37° C., 18 hours
Description: as §1

[21] = test system: Escherichia coli K-12 J5B 11-2; experiment: MIC, serial dilution on nutrient agar; assay type: cell-based; details: K12J5B112, 37° C., 18 hours
Description: as §1

[22] = test system: Shigella flexneri 4b JS11811; experiment: MIC, serial dilution on nutrient agar; assay type: cell-based; details: 4BJS11811, 37° C., 18 hours
Description: as §1

[23] = test system: Pseudomonas maltophilia GN907; experiment: MIC, serial dilution on nutrient agar; assay type: cell-based; details: Stenotrophomonas maltophilia, 37° C., 18 hours
Description: as §1

[24] = test system: Klebsiella pneumoniae PCI 602; experiment: MIC, serial dilution on nutrient agar; assay type: cell-based; details: PCI602, 37° C., 18 hours
Description: as §1

[25] = test system: Escherichia coli K-12 ML 1630; experiment: MIC, serial dilution on nutrient agar; assay type: cell-based; details: K12ML1630, 37° C., 18 hours
Description: as §1

Proteus vulgaris OX19 = experiment: MIC, serial dilution on nutrient agar; assay type: cell-based; details: 37° C., 18 hours
Description: as §1

Bacillus anthracis = experiment: microbe, parasite or virus in culture; assay type: cell-based; details: 18 h
[26] = test system: Pseudomonas aeruginosa K-Ps102; experiment: MIC, serial dilution on nutrient agar; assay type: cell-based
Escherichia coli NIHJ = experiment: MIC, serial dilution on nutrient agar; assay type: cell-based
oto-toxicity = details: compounds of this invention

SMILES	MIC (Salmonella typhi F63) [µg/mL]	MIC (Escherichia coli K-12 R5) [µg/mL]	MIC [4] [µg/mL]	MIC [6] [µg/mL]	MIC [7] [µg/mL]	MIC [8] [µg/mL]	MIC [9] [µg/mL]	MIC (Proteus rettgeri GN311) [µg/mL]	MIC [12] [µg/mL]	MIC [14] [µg/mL]	MIC [15] [µg/mL]	MIC (Serratia SOU) [µg/mL]	MIC (Serratia 4) [µg/mL]	MIC [16] [µg/mL]	MIC [17] [µg/mL]	MIC (Providencia 2991) [µg/mL]	MIC [18] [µg/mL]	MIC [19] [µg/mL]	MIC (Shigella sonnei JS11746) [µg/mL]	MIC (Serratia marcescens) [µg/mL]	further results
NC[C@@H]1CC[C@@H](N)[C@@H](O[C@H]2[C@H](O)[C@@H](O[C@H]3O[C@H](CO)[C@@H](O)[C@H](N)[C@H]3O)[C@H](N)C[C@@H]2N)O1 [DKB, 3',4'-dideoxykanamycin B, reference compound]	0.78 (≈ 1.73 µM)	> 100	< 0.2	6.25 (≈ 13.8 µM)	< 0.2	6.25 (≈ 13.8 µM)	100 (≈ 221 µM)	6.25 (≈ 13.8 µM)	> 100	1.56 (≈ 3.45 µM)	25 (≈ 55.4 µM)	> 100	100 (≈ 221 µM)	> 100	1.56 (≈ 3.45 µM)	> 100	0.78 (≈ 1.73 µM)	3.13 (≈ 6.93 µM)	6.25 (≈ 13.8 µM)	100 (≈ 221 µM)	MIC ([1]; APO1, nutrient agar, 37° C., 18 hours, read-out: MIC): 1.56 µg/mL (≈ 3.45 µM); MIC ([2]; B13, 18 h): 6.25 µg/mL (≈ 13.8 µM); MIC (Providencia Pv 16; PV16, 18 h): > 100 µg/mL; MIC ([3]; A3, 18 h): 3.13 µg/mL (≈ 6.93 µM); MIC ([5]; H11, nutrient agar, 37° C., 18 hours, read-out: MIC): 12.5 µg/mL (≈ 27.7 µM); MIC (Sarcina lutea PCI 1001; PCI1001, 18 h): 100 µg/mL (≈ 221 µM); MIC ([10]; NO.12, 18 h): 6.25 µg/mL (≈ 13.8 µM); MIC ([11]; ATCC10702, 18 h): 3.13 µg/mL (≈ 6.93 µM); MIC ([13]; Staphylococcus epidermidis, 109, nutrient agar, 37° C., 18 hours, read-out: MIC): 1.56 µg/mL (≈ 3.45 µM); MIC [20]: > 100 µg/mL; MIC [21]: 3.13 µg/mL (≈ 6.93 µM); MIC [22]: 3.13 µg/mL (≈ 6.93 µM); MIC [23]: > 100 µg/mL; MIC [24]: 0.78 µg/mL (≈ 1.73 µM); MIC [25]: 3.13 µg/mL (≈ 6.93 µM); MIC (Proteus vulgaris OX19): 0.78 µg/mL (≈ 1.73 µM); MIC (Bacillus anthracis): < 0.2 µg/mL; MIC ([26]; KPS102, 18 h): 6.25 µg/mL (≈ 13.8 µM); MIC (Escherichia coli NIHJ; nutrient agar, 37° C., 18 hours, read-out: MIC): 1.56 µg/mL (≈ 3.45 µM)
C[C@H]1O[C@H](O[C@@H]2[C@@H](O)[C@H](O[C@H]3O[C@H](CN)CC[C@H]3N)[C@@H](N)C[C@H]2NC(=O)[C@@H](O)CCN)[C@H](O)[C@@H](N)[C@@H]1O [AHB-6"-DDKB, 1-N-(L-4-amino-2-hydroxybutyryl)-6"-deoxydibekacin]	0.39 (≈ 0.727 µM)	50 (≈ 93.2 µM)	< 0.2	6.25 (≈ 11.6 µM)	< 0.2	6.25 (≈ 11.6 µM)	1.56 (≈ 2.91 µM)	50 (≈ 93.2 µM)	50 (≈ 93.2 µM)	3.13 (≈ 5.83 µM)	1.56 (≈ 2.91 µM)	100 (≈ 186 µM)	6.25 (≈ 11.6 µM)	50 (≈ 93.2 µM)	1.56 (≈ 2.91 µM)	100 (≈ 186 µM)	1.56 (≈ 2.91 µM)	1.56 (≈ 2.91 µM)	6.25 (≈ 11.6 µM)	50 (≈ 93.2 µM)	MIC ([1]; APO1, 18 h): 1.56 µg/mL (≈ 2.91 µM); MIC ([2]; B13, nutrient agar, 37° C., 18 hours, read-out: MIC): 25 µg/mL (≈ 46.6 µM); MIC (Providencia Pv 16; PV16, nutrient agar, 37° C., 18 hours, read-out: MIC): 25 µg/mL (≈ 46.6 µM); MIC ([3]; A3, nutrient agar, 37° C., 18 hours, read-out: MIC): 3.13 µg/mL (≈ 5.83 µM); MIC ([5]; H11, 18 h): 50 µg/mL (≈ 93.2 µM); MIC (Sarcina lutea PCI 1001; PCI1001, nutrient agar, 37° C., 18 hours, read-out: MIC): 3.13 µg/mL (≈ 5.83 µM); oto-toxicity (oto-toxicity): low oto-toxicity; MIC ([10]; NO.12, nutrient agar, 37° C., 18 hours, read-out: MIC): 25 µg/mL (≈ 46.6 µM); MIC ([11]; ATCC10702, nutrient agar, 37° C., 18 hours, read-out: MIC): 3.13 µg/mL (≈ 5.83 µM); MIC ([13]; Staphylococcus epidermidis, 109, 18 h): 1.56 µg/mL (≈ 2.91 µM); MIC [20]: 100 µg/mL (≈ 186 µM); MIC [21]: 1.56 µg/mL (≈ 2.91 µM); MIC [22]: 6.25 µg/mL (≈ 11.6 µM); MIC [23]: > 100 µg/mL; MIC [24]: 1.56 µg/mL (≈ 2.91 µM); MIC [25]: 3.13 µg/mL (≈ 5.83 µM); MIC (Proteus vulgaris OX19): 0.78 µg/mL (≈ 1.45 µM); MIC (Bacillus anthracis): 0.2 µg/mL (≈ 0.373 µM); MIC ([26]; KPS102, nutrient agar, 37° C., 18 hours, read-out: MIC): 12.5 µg/mL (≈ 23.3 µM); MIC (Escherichia coli NIHJ; 18 h): 1.56 µg/mL (≈ 2.91 µM)
